US20210128685A1, “PEDF-DERIVED PEPTIDES FOR PROMOTING MEIBOMIAN GLAND REGENERATION AND USES THEREOF” (BRIM Biotechnology, Inc., priority 2018, published 2021)

Legend:
limbus stem cells = details: rabbit; cited from earlier work
[1] = Alanine scanning and variants of the 29-mer (activities)
[2] = tested on: myogenic stem cells and C2C12 myoblasts; details: cited from earlier work
[3] = Measurement of tear volume (phenol red thread tear test); format: in vivo, C57BL/6 mice; details: old mice, weekly subconjunctival injection up to 4 weeks; weeks 1, 2, 3, 4 and 8
Experimental: (§1) Twelve to fifteen (12-15) months old C57BL/6 mice and 4-8 months old C57BL/6 mice were used. These mice were kept in standard pathogen-free environment at 24° C.±1° C., relatively humidity 60%±10%. All procedures were approved by the Mackay Memorial Hospital Review Board for animal investigation and were conducted in accordance with the ARVO statement for the Use of Animals in Ophthalmic and Vision Research. Mice were anesthetized by an intraperitoneal injection of a mixture of zoletil (6 mg/kg) and xylazine (3 mg/kg). One drop of 0.5% proparacaine hydrochloride (Alcaine; Alcon, Fort Worth, Tex., USA) was given before any ocular procedure.
(§2) The 29-mer was reconstituted in DMSO to a final concentration 100 μM. A separated dose of 10 μl of 29-mer (100 μM) mixed with 90 μl of phosphate-buffered saline (PBS) was injected into the upper and lower conjunctival fornix. 10 μl of DMSO mixed with 90 μl of PBS served as a control. […]
The amount of tears was measured with the phenol red thread tear test using ZONE-QUICK cotton threads (Yokota, Tokyo, Japan).^19,20 After general anesthesia, the lower eyelid was pulled down slightly, and a 1 mm portion of the thread was placed on the palpebral conjunctiva at the point ⅓ of the distance from the lateral canthus. […] The red portion of the thread is measured in millimeters.

[4] = tested on: acinar progenitor cells (p63-expressing cells); experiment: Immunohistochemistry of stem cell marker p63 in upper eyelids 5 days after single treatment; format: in vivo, C57BL/6 mice; details: aging (old) mice
Experimental: as §1, §2
Immunohistochemistry (IHC) was performed as previously described and modified.^22 Formalin-fixed, paraffin-embedded, mice specimens were deparaffinized in xylene and rehydrated in a graded series of ethanol concentrations. […] Quantification was estimated based on high quality images captured using a Pannoramic digital slide scanners (3Dhistech Ltd. Budapest, Hungary).

acinar progenitor cells = experiment: 5-Bromo-2'-deoxyuridine (BrdU) incorporation assay in upper eyelids after subconjunctival injection; format: in vivo, C57BL/6 mice; details: for BrdU-positive cells per acinus: 24 hours after subconjunctival injection; for BrdU-positive cells in acinar base (cell proliferation): day 5 after single subconjunctival injection
Experimental: as §1
(§3) The 29-mer was reconstituted in DMSO to a final concentration 100 μM. A separated dose of 10 μl of 29-mer (100 μM) mixed with 90 μl of phosphate-buffered saline (PBS) was injected into the upper and lower conjunctival fornix. 10 μl of DMSO mixed with 90 μl of PBS served as a control. To evaluate the effect of 29-mer on tear film break-up time (TBUT) and tear secretion of old mice, subconjunctival injection of 29-mer was introduced weekly till one month and then followed up for two months.
After subconjunctival injection of 29-mer or DMSO, 5-Bromo-2′deoxyuridine (BrdU) 0.1 mg/g of body weight was injected intraperitoneally. The upper eyelids were harvested at 24 hours to evaluate the proliferation of acinar progenitor cells. To study the mitosis of cells, mice were administered by intraperitoneal injections of BrdU daily for 3 days, and the upper eyelids were harvested at day 5. Before performing immunohistochemistry of BrdU, slides were treated with 1 N HCL at 95° C. for 20 minutes.
Immunohistochemistry (IHC) was performed as previously described and modified.^22 Formalin-fixed, paraffin-embedded, mice specimens were deparaffinized in xylene and rehydrated in a graded series of ethanol concentrations. Slides were blocked with 10% goat serum for 60 minutes and then incubated with primary antibody against BrdU (1:800 dilution), PEDF (1:50), or p63 (1:200) overnight at 4° C. The slides were subsequently incubated with the appropriate peroxidase-labeled goat immunoglobulin (1:500 dilution; Chemicon, Temecula, Calif.) for 20 minutes and then incubated with chromogen substrate (3,3-diaminobenzidine) for 2 minutes before counterstaining with hematoxylin. Quantification was estimated based on high quality images captured using a Pannoramic digital slide scanners (3Dhistech Ltd. Budapest, Hungary).

meibocytes = experiment: Oil Red O staining of eyelid cryosections for lipids; format: in vivo, C57BL/6 mice; details: old mice, versus DMSO
Experimental: as §1, §3
Eyelid tissues were embedded in OCT and sectioned at 8 μm of thickness. Frozen sections were placed in 60% 2-propanol for 1 minute, stained with filtered ORO solution for 15 minutes, rinsed with PBS and counterstained with hematoxylin.^4

Meibomian gland = experiment: Eyelid whole mount Oil Red O (ORO) staining, MG size; format: in vivo, C57BL/6 mice; details: old mice, weekly subconjunctival injection, at one month
Experimental: as §1, §2
At one month, upper eyelids were subjected to whole mount Oil Red O (ORO) staining. The size of MG tissue in whole mount was quantified using the color range selection and histogram tool with a computer-assisted image analyzer (Adobe Photoshop 7.0) and was calculated in Pixels. […]

[5] = Tear film break-up time (TBUT); format: in vivo, C57BL/6 mice; details: old mice, weekly subconjunctival injection up to 4 weeks; week 1 to week 4, difference significant up to 8 weeks
Experimental: as §1, §2
To avoid the reduced lipids secretion resulting from no eye blinking under long-term anesthesia, Tear break-up time (TBUT)^19,20 was performed immediately after mice were anesthetized. […] After three compulsory blinks, TBUT was recorded in […] under a slit-lamp with a blue-free barrier filter. […]

44-mer: 44-mer motif of PEDF, amino acid positions Val78-Thr121 (VLLSPLSVATALSALSLGAEQRTESIIHRALYYDLISSPDIHGT; UniProt P36955 78-121, looked up, fragment)
stem cells proliferation and regeneration in the limbus (limbus stem cells): induce stem cells proliferation and regeneration

SLGAEHRTESVIHRALYYDLITNPDIHST (listed as Mus musculus) [mo-29mer, mouse variant of the 29-mer]
activities of 29-mer variants [1]: active

SLGAEQRTESIIHRALYYDLISSPDIHGT (listed as Homo sapiens) [29-mer, PEDF-derived short peptide, human PEDF residues 93-121 (Ser93-Thr121)]
proliferation of myogenic stem cells and C2C12 myoblasts [2]: induce proliferation
Tear secretion test versus control [3]: invariant
number of p63-expressing cells per acinus [4]: 10.98±2.75
BrdU-positive cells per acinus (acinar progenitor cells; old mice): 1.67±0.58 cells/per acinus
BrdU-positive cells in acinar base (cell proliferation) (acinar progenitor cells; old mice): 4.29±1.19
BrdU-positive cells per acinus (acinar progenitor cells; young mice): 2.35±0.73 cells/per acinus
BrdU-positive cells in acinar base (cell proliferation) (acinar progenitor cells; young mice): 6.70±1.35
ORO staining within the cytoplasm of differentiating meibocytes, cross sections (meibocytes): more overall ORO staining
MG acinar size, whole mount ORO, upper eyelids (Meibomian gland): 2347530±34986.4 pixels/eyelid
TBUT versus control [5]: significantly longer

SLGAEHRTESVIHR (listed as Mus musculus) [mo-14mer, mouse variant of the 14-mer]
activities of 29-mer variants [1]: active
